Measured values from patent US20040214803A1, “Use of vitamin d3 analogue for the treatment of autoimmune diabetes” (priority 2001, published 2004).

Experiments:
Type in all cases: in vivo, mouse
CD4+ T cells = assay: Flow cytometric analysis of surface molecules on CD4+ cells from treated NOD mice
Procedure: Single-cell suspensions of pancreas-infiltrating, spleen or lymph node cells were incubated with anti-CD4 mAb-coated Microbeads (Miltenyi Biotec) and applied onto Mini-MACS columns (Miltenyi Biotec). Stainings were performed in the presence of 100 μg/ml mouse IgG using the following mAbs, all from PharMingen: CyChrome-labeled Streptavidin, FITC-labeled anti-CD4 (L3T4), PE-labeled anti-CD45RB (16A), PE-labeled anti-CD62L (MEL-14), PE-labeled anti-CD38 (rat IgG2a), FITC-labeled anti-CD69 (H1.2F3), and biotinylated anti-CD25 (7D4). Cells were analyzed with a FACScan flow cytometer equipped with CellQuest software (Becton Dickinson, Mountain View, Calif.).
Therefore, we analyzed the frequency of CD4^+ CD25^+ cells in 1,25-dihydroxy-16,23Z-diene-26,27-hexafluoro-19-nor vitamin D3-treated NOD mice. No difference was found in the percentage of splenic CD4^+ cells expressing CD25, CD38, CD69, CD62L and CD45RB in 20 week-old Compound A or vehicle-treated and untreated 8 week-old NOD mice (FIG. 6A).
FIG. 6. (page 6/9) Compound A treatment enhances the frequency of CD4^+ CD25^+ cells. Positively selected CD4^+ T cells were stained with mAbs specific for the indicated surface molecules and analyzed by flow cytometry. Acquisition was performed on CD4^+ cells. Bars represent the percent of spleen and lymph node CD4^+ T cells expressing the indicated surface molecules from untreated 8 week-old (□) or 20 week-old NOD mice treated 5×/week from 8 to 16 weeks of age with vehicle ( ? ) or with 0.03 μg/Kg Compound A (▪). Data are presented as mean ±SE of three separate experiments. The P values were calculated by Mann-Whitney U test (* indicates P<0.05 vs. 8 week-old NOD mice).

aortic allografts [1] = assay: Aortic allograft histology: inflammatory cell infiltrate; conditions: 0.03 μg/kg p.o., 60 days after transplantation
Procedure: Histology: Segments of aorta grafts were snap-frozen in Tissue Tek (Miles Laboratories, Elkhart, Ind.), and stored at −80° C. Frozen sections, 5 μm thick, were stained with hematoxylin and eosin, or with biotinylated mAbs against CD4, CD8, B220, CD11b or CD11c (all purchased from PharMingen, San Diego, Calif.), followed by streptavidin-peroxidase conjugate. 3-amino-9-ethylcarbazole (DAKO, Carpenteria, Calif.) was used as chromogen, and hematoxylin as a counterstain. The effect of Compound A in preventing chronic rejection was evaluated using the aortic graft model in the mouse. Graft combinations were syngeneic or allogeneic. In allogeneic combinations, recipient mice were treated orally with vehicle alone or containing Compound A (0.03 μg/kg) fives times per week, from day 0 to day 30 relative to the time of grafting. Aortic grafts were analyzed 60 days after transplantation.

aortic allografts [2] = assay: Aortic allograft chronic rejection: intimal thickening / luminal reduction; conditions: 0.03 μg/kg p.o. five times per week day 0 to day 30; grafts analysed 60 days after transplantation; vehicle >60%
Procedure: Mice: BALB/c and C57BL/6 (B6) male mice, weighing 22-24 g, were purchased from Charles River Laboratories (Calco, Italy), and kept under specific pathogen-free conditions. B6 (H-2^b) mice were used as donors and BALB/c (H-2^d) as recipients of aortic allografts.
Aorta transplantation: The entire procedure was performed according to Koulack et al. Development of a mouse aortic transplant model of chronic rejection Microsurgery 1995; 16: 110-3, with the modification described by Hong et al. Improved surgical technique for the establishment of a murine model of aortic transplantation. Microsurgery 1998; 18: 368-71. […]
Determination of luminal reduction: Luminal reduction was assessed in 5 μm-thick frozen transverse aortic sections stained with hematoxylin and eosin obtained 60 days post transplantation. To quantify morphological changes in the graft, we used a Leica DC camera (Leica IM 1000 image manager) to acquire the image, and the Leica Qwin software to calculate the luminal reduction percentage. […]
Statistical analysis: Numerical data are expressed as mean ±SD. Data on percent luminal reduction were analysed by a non parametric Students's t-test.
The effect of Compound A in preventing chronic rejection was evaluated using the aortic graft model in the mouse. […] Aortic grafts were analyzed 60 days after transplantation.

[3] = test system: pancreas-infiltrating cells; assay: Cytofluorimetric analysis of pancreas-infiltrating cells; conditions: among 8 week-old, vehicle-treated and treated mice at 30 weeks
Procedure: After removal of all visible pancreatic lymph nodes, pancreata were individually digested in 3 ml HBSS containing 1 mg/ml collagenase IV (Sigma), by shaking (200 rpm) at 37° C. for 15 min. Single cell suspensions were collected after diluting the enzyme with ice-cold HBSS containing 5% FCS (FETAL CALF SERUM) and removal of the aggregates by settling for 2 min on ice. Aggregates were further digested with collagenase IV at 0.5 mg/ml for 10 min, and at 0.25 mg/ml for 6 min. Single cell suspensions were washed three times, and passed over a MASC Pre-separation filter (Miltenyi Biotec) to remove cell aggragetes and clumps. […]
Single-cell suspensions of pancreas-infiltrating, spleen or lymph node cells were incubated with anti-CD4 mAb-coated Microbeads (Miltenyi Biotec) and applied onto Mini-MACS columns (Miltenyi Biotec). […] Cells were analyzed with a FACScan flow cytometer equipped with CellQuest software (Becton Dickinson, Mountain View, Calif.).
B. Consecutive sections of the same islets were stained with anti-CD4, anti-CD8, anti-B220, anti-CD11b (Mac-1), and anti-CD11c (N418) mAbs. […] Pancreas-infiltrating cells isolated from untreated 8 week-old NOD mice, vehicle-treated and Compound A treated NOD mice at 30 weeks of age were stained with mAbs specific for the indicated surface molecules and analyzed by flow cytometry. […]

Compound: C[C@H](C/C=C\C(O)(C(F)(F)F)C(F)(F)F)C1=CC[C@H]2/C(=C/C=C3C[C@@H](O)C[C@H](O)C3)CCC[C@]12C [Compound A, 1,25-dihydroxy-16,23Z-diene-26,27-hexafluoro-19-nor vitamin D3]
- percentage of splenic CD4+ cells expressing CD25, CD38, CD69, CD62L and CD45RB (CD4+ T cells; 20 week-old mice, vs vehicle-treated and untreated 8 week-old): No difference
- percentage of CD45RBhigh (CD4+ T cells; pancreatic lymph node CD4+ cells, 8 week-old 75.9±0.5%, vehicle 74.2±1.6): 65.1±0.3%
- percentage of CD4+ CD25+ (CD4+ T cells; pancreatic lymph node cells, 8 week-old 11.6±0.1%, vehicle 13.0±0.1): 20.1±0.1%
- percentage of CD4+ CD38+ (CD4+ T cells; pancreatic lymph node cells, 8 week-old 11.8±0.1%, vehicle 10.6±1.0): 25.2±0.2%
- percentage of CD45RBlow CD4+ cells (CD4+ T cells; pancreatic lymph node cells, 8 week-old 12.65±0.43%, vehicle 34.8±0.01): 24.1±0.22%
- double positive CD25+ CD38+ CD4+ cells (CD4+ T cells; pancreatic lymph node, 8 week-old 8%, vehicle 7%): 17%
- CD4, CD8 and B cells in the grafts (aortic allografts [1]): complete absence
- number of macrophages and dendritic cells in the grafts (aortic allografts [1]; vs vehicle): profoundly reduced number
- intimal thickening (aortic allografts [2]): < 20%
- percentage of CD4+, CD8+, B220+, CD11b+ and CD11c+ pancreas-infiltrating cells [3]: no difference
